{"source": "paper PMC8997913", "about": "“Lichen Secondary Metabolites Inhibit the Wnt/β-Catenin Pathway in Glioblastoma Cells and Improve the Anticancer Effects of Temozolomide” (Cells, 2022)", "key": {"[1]": {"design": "method as in PMID 34959693, PMID 33916370", "conditions": "previous studies, ref [5],[14]; cited from earlier work"}, "[2]": {"system": "Wnt/β-catenin pathway target genes in T98G cells", "test": "qPCR of β-catenin and Wnt target genes, T98G", "assay_type": "cell-based, human", "conditions": "48 h, mRNA vs DMSO control, single agent", "method": "(§1) Based on the MTT test, the lichen secondary metabolite concentrations allowing the survival of more than 70% of cells were chosen for the subsequent experiments. The compounds were added as follows: A-172 cells—atranorin 25 µM, caperatic acid 50 µM, physodic acid 25 µM, squamatic acid 25 µM, salazinic acid 50 µM, and lecanoric acid 100 µM; T98G cells—atranorin 50 µM, caperatic acid 100 µM, physodic acid 25 µM, squamatic acid 50 µM, salazinic acid 100 µM, and lecanoric acid 100 µM; U-138 MG cells—atranorin 25 µM, caperatic acid 50 µM, physodic acid 25 µM, squamatic acid 50 µM, salazinic acid 50 µM, and lecanoric acid 100 µM. As far as the TMZ treatment is concerned, it was added in the concentrations depending on the MGMT expression and methylation status, i.e., TMZ 30 µM was added to the A-172 cell line, and TMZ 100 µM was added to both the T98G and U-138 MG cell lines. In the case of the 2D culture, the cells were treated with the compounds 24 h after seeding, whereas, in regard to 3D culture, 5 days were needed to form spheroids. All subsequent analyses were performed 48 h after treatment.\n(§2) The Universal RNA Purification Kit (EURx, Gdańsk, Poland) was used for total RNA isolation from the A-172, T98G, and U-138 MG cells, and the Revert-Aid First Strand cDNA Synthesis kit (Fermentas, Burlington, ON, Canada) was chosen for cDNA synthesis. Quantitative real-time PCR (qPCR) was performed using Hot FIREPol EvaGreen qPCR Mix Plus (Solis Biodyne, Tartu, Estonia) and LightCycler 96 (Roche Diagnostics GmbH, Mannheim, Germany). Primer sequences were previously published and their synthesis was performed at the Institute of Biochemistry and Biophysics, Warsaw, Poland. The protocol started with 15 min enzyme activation at 95 °C, followed by 40 cycles of 95 °C for 15 s; appropriate annealing temperature for 20 s; 72 °C for 40 s and the final elongation at 72 °C for 5 min. Melting curve analysis was used to confirm the generation of a single amplification product. TATA box-binding protein (TBP), a component of the DNA-binding protein complex TFIID, served as the endogenous RNA control. The results were expressed as N-fold differences in the gene expression relative to the TBP gene. The ΔΔCt method was used for fold-change calculation. All samples were analyzed in triplicate, and the reaction was repeated at least twice."}, "[3]": {"system": "Wnt/β-catenin pathway target genes in A-172 cells", "test": "qPCR of β-catenin and Wnt target genes, A-172", "assay_type": "cell-based, human", "conditions": "A-172, 48 h", "method": "as §1, §2"}, "[4]": {"system": "T98G cells", "test": "ROS (superoxide) generation, flow cytometry, T98G", "assay_type": "cell-based, human", "conditions": "48 h", "method": "(§3) Based on the MTT test, the lichen secondary metabolite concentrations allowing the survival of more than 70% of cells were chosen for the subsequent experiments. The compounds were added as follows: A-172 cells—atranorin 25 µM, caperatic acid 50 µM, physodic acid 25 µM, squamatic acid 25 µM, salazinic acid 50 µM, and lecanoric acid 100 µM; T98G cells—atranorin 50 µM, caperatic acid 100 µM, physodic acid 25 µM, squamatic acid 50 µM, salazinic acid 100 µM, and lecanoric acid 100 µM; U-138 MG cells—atranorin 25 µM, caperatic acid 50 µM, physodic acid 25 µM, squamatic acid 50 µM, salazinic acid 50 µM, and lecanoric acid 100 µM. […]\nThe intracellular detection of superoxide radicals was detected by flow cytometric analysis after the staining with dihydroethidium, using The Muse® Oxidative Stress Kit (Merck, Darmstadt, Germany). Briefly, 100,000 cells per well were seeded on 6-well plates and after a 24 h incubation they were treated with the analyzed lichen secondary metabolites in the concentrations allowing >70% of cell survival; cells treated with DMSO were used as the negative control. […] The obtained data were evaluated using Muse® Analysis Software ver. […]"}, "[5]": {"test": "Parallel artificial membrane permeability assay for the blood-brain barrier (PAMPA-BBB)", "assay_type": "in vitro ADME", "conditions": "pH 7.4, 4 h, 37 °C, mean ± SEM, n = 3, Pe > 1.5 high, < 1.5 low permeation predicted, read-out: Pe × 10^−6", "method": "The parallel artificial membrane permeability assay (PAMPA) for the blood-brain barrier (BBB) (Pion Inc., Billerica, MA, USA) was used to analyze whether the lichen secondary metabolites tested in this study were able to cross the BBB. The stock solutions (5 mg/mL) of tested compounds were prepared using DMSO. Next, the donor solution (24.75 μg/mL) using Prisma buffer (pH = 7.4; Prisma HT, Pion Inc., Billerica, MA, USA) were made. Firstly, 180 μL of the donor solution were added to the donor wells. Then the filter membranes were coated with 5 μL BBB-1 lipid solution (Pion Inc., Billerica, MA, USA) and the acceptor wells were filled with 200 μL BSB (Brain Sink Buffer, Pion Inc., Billerica, MA, USA). The plates were sandwiched together and incubated for 4 h at 37 °C (Thermo Scientific MaxQ 4450, Waltham, MA, USA). The results were determined by spectroscopic analysis (Multiskan GO microplate reader, Waltham, MA, USA), with the appropriate wavelength for a given compound (240 nm for […] salazinic acid, 250 nm for atranorin and squamatic acid, 263 nm for physodic acid, and 270 nm for lecanoric acid). […] Pe is the effective permeability coefficient (cm/s), VD-donor volume, VA-acceptor volume, Ceq-equilibrium concentration, Ceq=CD×VD+CA×VA/VD+VA , S-membrane area, and t-incubation time (in seconds). […] Samples were analyzed in triplicate, and the average was reported."}, "[6]": {"system": "T98G cells", "test": "Apoptosis, caspase-3/7 and 7-AAD flow cytometry, T98G", "assay_type": "cell-based, human", "method": "as §1\n(§4) The fluorescent-based analysis of apoptosis using Muse® Caspase-3/7 Kit was performed in order to analyze the percentage of live, early, and late apoptotic; total apoptotic; and dead cells in A-172, T98G, and U-138 MG GBM cells treated with lichen secondary metabolites. The principle of the method relies on the measurement of the activity of executioner caspases, i.e., caspase-3 and caspase-7, as well as analyzing the integrity of the cell membrane with the use of a dead cell marker 7-AAD. Cell seeding and treatment followed the same protocol as for cell cycle or ROS generation analysis, while the subsequent procedures were performed according to the manufacturer’s recommendations."}, "[7]": {"system": "A375 melanoma cancer cells", "design": "method as in PMID 28012710", "conditions": "ref [33]; cited from earlier work"}, "[8]": {"system": "T98G cells", "conditions": "taken from the literature, ref [14]; read-out: IC50 [uM] ± SEM T98G; cited from earlier work"}, "[9]": {"system": "U-138 MG cells", "design": "method as in PMID 33916370", "conditions": "taken from the literature, ref [14]; read-out: IC50 [uM] ± SEM U-138 MG; cited from earlier work"}, "[10]": {"system": "U-138 MG cells", "test": "Apoptosis, caspase-3/7 and 7-AAD flow cytometry, U-138 MG", "assay_type": "cell-based, human", "conditions": "48 h", "method": "as §1, §4"}, "[11]": {"system": "Wnt/β-catenin pathway target genes in U-138 MG cells", "test": "qPCR of β-catenin and Wnt target genes, U-138 MG", "assay_type": "cell-based, human", "conditions": "48 h; for NEDD9 expression: TMZ 100 µM", "method": "as §1, §2"}, "[12]": {"system": "A-172 cells", "conditions": "taken from the literature, ref [14]; read-out: IC50 [uM] ± SEM A-172; cited from earlier work"}, "[13]": {"system": "T98G cells-derived spheroids", "test": "Microarray expression study of T98G spheroids", "assay_type": "cell-based, human", "conditions": "48 h, TMZ 100 µM, FC > abs. 2", "method": "Moreover, the 3D culture of the T98G cell line was also established. The cells were cultured in ultra-low attachment microplates (Corning®, Corning, NY, USA) (1000 cell per well) to form spheroids. The standard medium was supplemented with Corning® Matrigel® Matrix for Organoid Culture (3.5%) (Corning®, Corning, NY, USA) and epidermal growth factor—EGF (10 ng/mL) (Stemcell Technologies, Vancouver, BC, Canada). Both 2D and 3D cell cultures were grown in a standard humidified incubator (Memmert, Schwabach, Germany) at 37 °C in 5% CO2 and 95% air atmosphere.\nas §3\nThe obtained CEL files were further analyzed using the R statistical language and Bioconductor package, including the relevant Bioconductor libraries. […]"}, "[14]": {"conditions": "mRNA vs DMSO control, single agent, (TMZ 30 µM)"}, "[15]": {"conditions": "mRNA vs DMSO control, single agent"}}}
{"smiles": "CC(=O)C1=C(O)C=C2Oc3c(C(C)=O)c(O)c(C)c(O)c3[C@]2(C)C1=O", "note": "[(−)-usnic acid]", "values": [{"measurement": "ability to cross the blood-brain barrier", "setting": "[1]", "result": "can cross the blood-brain barrier"}]}
{"smiles": "Cn1ncnc2c(=O)n(C)c(=O)nc1-2", "note": "[PKF118-310, reference compound]", "values": [{"measurement": "c-MYC expression", "setting": "[2]", "result": "did not diminish"}, {"measurement": "BIRC5 expression", "setting": "[2]; TMZ 100 µM", "result": "downregulated"}, {"measurement": "c-MYC expression", "setting": "[3]; [14]", "result": "did not diminish"}]}
{"smiles": "CCCCCC(=O)Cc1cc(O)cc2c1C(=O)Oc1cc(O)c(C(=O)O)c(CCCCC)c1O2", "note": "[Physodic acid]", "values": [{"measurement": "oxidative stress (superoxide) induction", "setting": "[4]", "result": "induce oxidative stress"}, {"measurement": "c-MYC expression", "setting": "[2]", "result": "downregulated"}, {"measurement": "BIRC5 expression", "setting": "[2]; TMZ 100 µM", "result": "downregulated"}, {"measurement": "Papp at 4 h, 24.75 µg/mL", "setting": "[5]", "result": "3.9 ± 0.2", "unit": "×10⁻⁶ cm/s"}, {"measurement": "number of apoptotic cells vs control", "setting": "[6]; 48 h, topotecan 100 nM", "result": "significant increase"}, {"measurement": "apoptotic cells detected", "setting": "[6]; 48 h treatment", "result": "~80", "unit": "%"}, {"measurement": "apoptosis induction", "setting": "[7]", "result": "activated an apoptotic process"}, {"measurement": "IC50", "setting": "[8]", "result": "50.6 ± 1.09", "unit": "µM"}, {"measurement": "ability to cross the blood-brain barrier", "setting": "[1]", "result": "can cross the blood-brain barrier"}, {"measurement": "IC50", "setting": "[9]", "result": "45.7 ± 4.2", "unit": "µM"}, {"measurement": "CCND1 expression", "setting": "[3]; co-treatment with TMZ 30 µM", "result": "upregulation"}, {"measurement": "NEDD9 expression", "setting": "[3]; [15]", "result": "downregulated"}, {"measurement": "effect on apoptosis", "setting": "[10]", "result": "anti-apoptotic effect"}, {"measurement": "expression of the Wnt target genes", "setting": "[11]; co-treatment with TMZ 100 µM", "result": "huge downregulatory effect"}, {"measurement": "Axin2 expression", "setting": "[11]; [15]", "result": "decreased"}, {"measurement": "CCND1 expression", "setting": "[11]; [15]", "result": "downregulated CCND1 expression by around half"}, {"measurement": "NEDD9 expression", "setting": "[11]; [15]", "result": "upregulated"}, {"measurement": "IC50", "setting": "[12]", "result": "42.4 ± 1.25", "unit": "µM"}]}
{"smiles": "Cn1nnc2c(C(N)=O)ncn2c1=O", "note": "[TMZ, temozolomide]", "values": [{"measurement": "Axin2 expression", "setting": "[2]; TMZ 100 µM", "result": "downregulation"}, {"measurement": "BIRC5 expression", "setting": "[2]; TMZ 100 µM", "result": "downregulation"}, {"measurement": "number of significantly downregulated genes vs control", "setting": "[13]", "result": 46}, {"measurement": "number of significantly upregulated genes vs control", "setting": "[13]", "result": 15}, {"measurement": "Axin2 expression", "setting": "[3]; [14]", "result": "upregulated"}, {"measurement": "c-MYC expression", "setting": "[3]; [14]", "result": "upregulated"}, {"measurement": "NEDD9 expression", "setting": "[11]; [15]", "result": "downregulated"}]}
{"smiles": "COc1cc(C)c(C(=O)Oc2cc(C)c(C(=O)O)c(O)c2)c(O)c1", "note": "[evernic acid]", "values": [{"measurement": "ability to cross the blood-brain barrier", "setting": "[1]", "result": "can cross the blood-brain barrier"}]}
